Assay: collision cross section in nitrogen (drift tube, single-field); higher = larger gas-phase ion size
[1] = ion type: [M+Na], ion source: ESI, ion mode: Positive
[2] = ion type: [M+H], ion source: ESI, ion mode: Positive
[3] = ion type: [M+H], ion source: APCI, ion mode: Positive
[4] = ion type: [M+], ion source: APCI, ion mode: Positive
[5] = ion type: [M-H], ion source: ESI, ion mode: Negative
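Further: chemical standards at 10 µM analysed by drift tube IMS-QTOF MS in about 3.95 torr nitrogen, mean of duplicate injections differing ≤1%, mass error below 10 ppm.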

With `c1cc(C(c2ccc(OCC3CO3)cc2)c2ccc(OCC3CO3)cc2)ccc1OCC1CO1` (centres undefined) the “collision cross section in nitrogen” value [1] was 199.3 Å².
With `C1CC(COCC2CO2)CCC1COCC1CO1` (centres undefined) the “collision cross section in nitrogen” value [1] was 160.1 Å².
For `C=CC(=O)OCCn1c(=O)n(CCOC(=O)C=C)c(=O)n(CCOC(=O)C=C)c1=O`, the “collision cross section in nitrogen” value [1] was 184.5 Å².
In the case of `CC(=O)NC1(c2cccc(F)c2)CCN(CC[C@@]2(c3ccc(Cl)c(Cl)c3)CN(c3ccccc3)C(=O)CO2)CC1`, the “collision cross section in nitrogen” value [2] is reported as 243.8 Å² and the “collision cross section in nitrogen” value [1] is reported as 250.7 Å².
With `CC(C)(c1ccccc1)c1ccc(Nc2ccc(C(C)(C)c3ccccc3)cc2)cc1` the “collision cross section in nitrogen” value [3] was 220.2 Å², the “collision cross section in nitrogen” value [2] was 220.3 Å² and the “collision cross section in nitrogen” value [4] was 218.2 Å². The “collision cross section in nitrogen” value [5] was 222.7 Å².
With `CC(C)(CO)COC(=O)C(C)(C)CO` the “collision cross section in nitrogen” value [1] was 151.6 Å².
In the case of `CC(C)CCCCCCCOC(=O)c1ccccc1C(=O)OCCCCCCCC(C)C`, the “collision cross section in nitrogen” value [1] is reported as 225.8 Å².
For `CC(C)c1cccc(C(C)C)c1NC(=O)NS(=O)(=O)c1cc(C(C)(C)O)co1`, the “collision cross section in nitrogen” value [1] was 207.5 Å² and the “collision cross section in nitrogen” value [5] was 199.5 Å².
In the case of `CC1(C)CCC(C)(C)c2cc(C(=O)Nc3ccc(C(=O)O)cc3)ccc21`, the “collision cross section in nitrogen” value [2] is reported as 198.2 Å² and the “collision cross section in nitrogen” value [5] is reported as 198 Å².
With `Cc1c(-c2cccnc2)c2ccccc2n1CCCCC(=O)O` the “collision cross section in nitrogen” value [3] was 176.6 Å², the “collision cross section in nitrogen” value [2] was 176.7 Å² and the “collision cross section in nitrogen” value [5] was 183.7 Å².
With `Cc1oc2c(NC(=O)c3c(Cl)cccc3Cl)cccc2c1C(C)(C)O` the “collision cross section in nitrogen” value [2] was 186.3 Å², the “collision cross section in nitrogen” value [1] was 190.9 Å² and the “collision cross section in nitrogen” value [5] was 191.5 Å².
In the case of `Cc1cc(SCc2sc(-c3ccc(C(F)(F)F)c(F)c3)nc2C)ccc1OCC(=O)O`, the “collision cross section in nitrogen” value [3] is reported as 194.4 Å², the “collision cross section in nitrogen” value [2] is reported as 194.2 Å² and the “collision cross section in nitrogen” value [5] is reported as 199.5 Å².
For `Cc1cc(CCC(=O)OCCOCCOCCOC(=O)CCc2cc(C)c(O)c(C(C)(C)C)c2)cc(C(C)(C)C)c1O`, the “collision cross section in nitrogen” value [3] was 233.4 Å², the “collision cross section in nitrogen” value [1] was 236.4 Å² and the “collision cross section in nitrogen” value [4] was 234.2 Å². The “collision cross section in nitrogen” value [5] was 237.8 Å².
For `Cc1ccc2oc(CN(Cc3ccccc3)C(=O)Nc3c(F)cc(F)cc3F)c(-c3ccc(Cl)cc3)c2c1`, the “collision cross section in nitrogen” value [1] was 226.8 Å² and the “collision cross section in nitrogen” value [5] was 225.2 Å².
For `CC1=NN(c2cccc(S(=O)(=O)O)c2)C(=O)C1`, the “collision cross section in nitrogen” value [2] was 161.7 Å², the “collision cross section in nitrogen” value [1] was 161.9 Å² and the “collision cross section in nitrogen” value [5] was 156.5 Å².
For `CC1=NN(c2ccc(S(=O)(=O)O)cc2)C(=O)C1`, the “collision cross section in nitrogen” value [2] was 162.7 Å² and the “collision cross section in nitrogen” value [5] was 159.1 Å².
For `CCC(C)N(C)C(=O)c1cc2ccccc2c(-c2ccccc2Cl)n1` (centres undefined), the “collision cross section in nitrogen” value [3] was 186.6 Å², the “collision cross section in nitrogen” value [2] was 185.9 Å² and the “collision cross section in nitrogen” value [1] was 192.8 Å².
With `CCC(Cc1ccccc1)(C(=O)c1ccc(N2CCOCC2)cc1)N(C)C` (centres undefined) the “collision cross section in nitrogen” value [3] was 195.7 Å² and the “collision cross section in nitrogen” value [2] was 195.7 Å².
With `CCCc1c(OCCCOc2ccc(OCC(=O)O)cc2)ccc(C(C)=O)c1O` the “collision cross section in nitrogen” value [2] was 186.1 Å², the “collision cross section in nitrogen” value [1] was 191.7 Å² and the “collision cross section in nitrogen” value [5] was 190.5 Å².
With `CCCCOC(=O)[C@@H](C)Oc1ccc(Oc2ccc(C(F)(F)F)cn2)cc1` the “collision cross section in nitrogen” value [2] was 195.5 Å² and the “collision cross section in nitrogen” value [1] was 194.5 Å².
For `CCCOc1ccc(S(=O)(=O)N2CCN(CC)CC2)cc1-c1nc2c(CC)n(Cc3ccccn3)nc2c(=O)[nH]1`, the “collision cross section in nitrogen” value [3] was 237 Å², the “collision cross section in nitrogen” value [2] was 236.5 Å² and the “collision cross section in nitrogen” value [1] was 256.9 Å². The “collision cross section in nitrogen” value [5] was 238.6 Å².
With `CCN(CC)c1ccc2cc(-c3nc4cc(S(N)(=O)=O)ccc4o3)c(=O)oc2c1` the “collision cross section in nitrogen” value [2] was 205.5 Å², the “collision cross section in nitrogen” value [1] was 219.6 Å² and the “collision cross section in nitrogen” value [5] was 218.6 Å².
With `CCN(Cc1cccnc1)C(=O)c1cccc(Cl)c1[C@]1(C)C(=O)N(Cc2ccc(OC)cc2OC)c2ccc(Cl)cc21` the “collision cross section in nitrogen” value [2] was 241.2 Å² and the “collision cross section in nitrogen” value [1] was 233.4 Å².
For `CCOC(=O)COc1ccc2c(c1)CC(NCC(O)c1cccc(Cl)c1)CC2` (centres undefined), the “collision cross section in nitrogen” value [3] was 192.3 Å², the “collision cross section in nitrogen” value [2] was 192.2 Å² and the “collision cross section in nitrogen” value [1] was 198.6 Å². The “collision cross section in nitrogen” value [5] was 194.5 Å².
For `CC[C@@H]1C[C@H](N(Cc2cc(C(F)(F)F)cc(C(F)(F)F)c2)C(C)=O)c2cc(C(F)(F)F)ccc2N1C(=O)OC(C)C`, the “collision cross section in nitrogen” value [1] was 233.5 Å² and the “collision cross section in nitrogen” value [5] was 231.1 Å².
In the case of `CC[C@H](C)[C@@H](C(=O)O)n1sc2ccccc2c1=O`, the “collision cross section in nitrogen” value [2] is reported as 155.1 Å², the “collision cross section in nitrogen” value [1] is reported as 169.8 Å² and the “collision cross section in nitrogen” value [5] is reported as 159.8 Å².
For `CN(C)C(=O)C1(N2CCCCC2)CCN(CC[C@@]2(c3ccc(Cl)c(Cl)c3)CN(C(=O)c3ccccc3)CCO2)CC1`, the “collision cross section in nitrogen” value [3] was 244.9 Å², the “collision cross section in nitrogen” value [2] was 245.5 Å² and the “collision cross section in nitrogen” value [1] was 241.3 Å².
For `CN(C)C(=O)NC1(c2ccccc2)CCN(CCC[C@]2(c3ccc(Cl)c(Cl)c3)CCCN(C(=O)c3ccccc3)C2)CC1`, the “collision cross section in nitrogen” value [3] was 252.9 Å², the “collision cross section in nitrogen” value [2] was 252.5 Å² and the “collision cross section in nitrogen” value [1] was 256.5 Å². For the same molecule, the “collision cross section in nitrogen” value [5] was 246.6 Å².
In the case of `CN(C)C(=O)Nc1cccc(OC(=O)NC(C)(C)C)c1`, the “collision cross section in nitrogen” value [1] is reported as 175 Å².
For `CNC(=O)ON=C(CSC)C(C)(C)C`, the “collision cross section in nitrogen” value [1] was 160.6 Å².
With `CNCc1cc(F)ccc1Oc1ccc(Cl)c(Cl)c1` the “collision cross section in nitrogen” value [2] was 173.4 Å².
With `CNCc1ccc(NC(=O)c2c[nH]c3c2C(=O)CCC3)cc1` the “collision cross section in nitrogen” value [1] was 182.6 Å² and the “collision cross section in nitrogen” value [5] was 178.1 Å².
For `COc1cc(C(C)C)c2c(c1)S(=O)(=O)N(COc1cc(=O)n3cccc(OCCN4CCCCC4)c3n1)C2=O`, the “collision cross section in nitrogen” value [3] was 228 Å², the “collision cross section in nitrogen” value [2] was 226.9 Å² and the “collision cross section in nitrogen” value [1] was 230.1 Å².
For `COc1ccc(C(=O)Nc2nc3ccccc3c(NCc3ccccc3)c2C#N)cc1`, the “collision cross section in nitrogen” value [3] was 207 Å², the “collision cross section in nitrogen” value [2] was 206.7 Å² and the “collision cross section in nitrogen” value [1] was 206.2 Å². For the same molecule, the “collision cross section in nitrogen” value [5] was 210.8 Å².
With `COCc1nnc(-c2ccc[n+]([O-])c2)n1-c1c(Cl)c(Cl)cc2[nH]c(=O)c(=O)[nH]c12` the “collision cross section in nitrogen” value [2] was 193.1 Å², the “collision cross section in nitrogen” value [1] was 193.2 Å² and the “collision cross section in nitrogen” value [5] was 190.9 Å².
With `COc1ccc2cc(S(=O)(=O)N[C@H](CC(=O)N[C@H](Cc3ccc(CN4[C@H](C)CCC[C@@H]4C)cc3)C(=O)N(C)C(C)C)c3ccc4c(c3)OCO4)ccc2c1` the “collision cross section in nitrogen” value [3] was 266.1 Å², the “collision cross section in nitrogen” value [2] was 267 Å² and the “collision cross section in nitrogen” value [1] was 277.4 Å². The “collision cross section in nitrogen” value [5] was 271.5 Å².
For `CS(=O)(=O)c1ccc([C@@H](CC2CCCC2)C(=O)Nc2cnccn2)cc1Cl`, the “collision cross section in nitrogen” value [2] was 205.5 Å², the “collision cross section in nitrogen” value [1] was 207.9 Å² and the “collision cross section in nitrogen” value [5] was 202.7 Å².
For `CSc1ccc(Oc2ccc(S(N)(=O)=O)cc2CN(C)C)cc1C`, the “collision cross section in nitrogen” value [3] was 196.5 Å², the “collision cross section in nitrogen” value [2] was 195.7 Å² and the “collision cross section in nitrogen” value [1] was 208.1 Å². The “collision cross section in nitrogen” value [5] was 196.9 Å².
With `C[C@@H](Oc1ccc(CNC(=O)c2cccnc2Oc2ccc3c(c2)OCO3)c(F)c1)C(=O)O` the “collision cross section in nitrogen” value [2] was 196.3 Å², the “collision cross section in nitrogen” value [1] was 197.1 Å² and the “collision cross section in nitrogen” value [5] was 202.7 Å².
With `Cc1ccc(Nc2ccc(Nc3ccc(C)cc3S(=O)(=O)O)c3c2C(=O)c2ccccc2C3=O)c(S(=O)(=O)O)c1` the “collision cross section in nitrogen” value [2] was 235.2 Å² and the “collision cross section in nitrogen” value [5] was 227.8 Å².
With `N#CC(CCc1ccc(Cl)cc1)(Cn1cncn1)c1ccccc1` (centres undefined) the “collision cross section in nitrogen” value [3] was 183.9 Å² and the “collision cross section in nitrogen” value [2] was 183.1 Å².
In the case of `O=C(N[C@@H](c1ccccc1)[C@@H]1CCCCN1)c1cccc(C(F)(F)F)c1Cl`, the “collision cross section in nitrogen” value [3] is reported as 190.3 Å², the “collision cross section in nitrogen” value [2] is reported as 190.4 Å² and the “collision cross section in nitrogen” value [1] is reported as 200.2 Å². The “collision cross section in nitrogen” value [5] was 191.6 Å².
In the case of `N#C[C@@H]1CC(F)(F)CN1C(=O)CNC1CC2CCC(C1)N2c1ncccn1` (some centres undefined), the “collision cross section in nitrogen” value [3] is reported as 176.9 Å², the “collision cross section in nitrogen” value [2] is reported as 176.9 Å² and the “collision cross section in nitrogen” value [1] is reported as 182.7 Å².
With `O=C(NS(=O)(=O)/C=C/c1cccs1)c1ccc(F)cc1Br` the “collision cross section in nitrogen” value [1] was 189 Å² and the “collision cross section in nitrogen” value [5] was 178 Å².
With `N#Cc1ccc(C2CCCc3cncn32)cc1` (centres undefined) the “collision cross section in nitrogen” value [3] was 157 Å² and the “collision cross section in nitrogen” value [2] was 157.2 Å².
For `NC(=O)N(O)[C@@H]1COc2cc(OCc3ccccc3)ccc21`, the “collision cross section in nitrogen” value [1] was 165.5 Å².
For `NC(=O)N(O)[C@@H]1C=C[C@H](Oc2cccc(Oc3ccc(F)cc3)c2)C1`, the “collision cross section in nitrogen” value [1] was 191.1 Å².
With `NCC1(Cc2noc(=O)[nH]2)CCCCC1` the “collision cross section in nitrogen” value [2] was 154 Å² and the “collision cross section in nitrogen” value [5] was 151.4 Å².
In the case of `O=C(NS(=O)(=O)/C=C/c1ccccc1)c1ccc(F)cc1Cl`, the “collision cross section in nitrogen” value [1] is reported as 188.9 Å² and the “collision cross section in nitrogen” value [5] is reported as 177.6 Å².
With `O=S(=O)(c1ccc2c(c1)CCCN2)N1CCC[C@@H]2CCCC[C@H]21` the “collision cross section in nitrogen” value [3] was 179.5 Å², the “collision cross section in nitrogen” value [2] was 178.5 Å² and the “collision cross section in nitrogen” value [1] was 195.9 Å². For the same molecule, the “collision cross section in nitrogen” value [5] was 179.6 Å².
With `O=C(O)CCN(C1(C(=O)NO)CCCC1)S(=O)(=O)c1ccc(Oc2ccc(F)cc2)cc1` the “collision cross section in nitrogen” value [1] was 211 Å² and the “collision cross section in nitrogen” value [5] was 198.1 Å².
With `O=C(NO)C1(NS(=O)(=O)c2ccc(Oc3ccc(F)cc3)cc2)CCOCC1` the “collision cross section in nitrogen” value [1] was 206.8 Å² and the “collision cross section in nitrogen” value [5] was 184.6 Å².
With `O=C(O)C1(c2ccc3c(c2)OC[C@H](Cc2ccc(-c4ccccc4)cc2)[C@H]3O)CCCC1` the “collision cross section in nitrogen” value [1] was 202.9 Å².
